Publication PMC11597774, “Investigation of Antimicrobial and Anti-Inflammatory Efficacy of Newly Synthesized Pyrogallol-Coumarin Hybrids: In Vitro and In Silico Studies” (Pharmaceutics, 2024)
In brackets after ≈: the same amount, converted by molar mass. Read-outs that look alike come from different tables or passages of the source.

Tests used:
B. subtilis ATCC 6633 = test: Microdilution MIC/MMC with resazurin; assay type: cell-based, Bacillus subtilis; settings: for MIC: Bacillus subtilis, ATCC6633
Protocol: (§1) The antimicrobial activity of PCH-1 and PCH-2 was tested against 13 microorganisms. The experiment included four standard strains, Staphylococcus aureus ATCC 6538, Bacillus subtilis ATCC 6633, Proteus mirabilis ATCC 12453, and Pseudomonas aeruginosa ATCC 27853; five isolates, Staphylococcus aureus, Escherichia coli, Salmonella enterica, Klebsiella pneumoniae, and Bacillus subtilis; and one probiotic strain Lactobacillus plantarum 299V. Additionally, three fungal strains were tested, including one standard strain, Candida albicans ATCC 10231, and two isolates, Saccharomyces cerevisiae and probiotic strain Saccharomyces boulardii.
(§2) The bacterial suspensions were prepared using the direct colony method. The turbidity of the initial suspension was adjusted using a densitometer (DEN-1, BioSan, Latvia). When adjusted to the turbidity of the 0.5 McFarland standard, the bacterial suspension contains approximately 10^8 colony-forming units (CFU)/mL, and the yeast suspension contains approximately 10^6 CFU/mL. For the experiment, the initial suspension was further diluted at a 1:100 ratio in a sterile 0.85% saline solution.
(§3) The antimicrobial activity was assessed by determining the minimum inhibitory concentrations (MICs) and minimum microbicidal concentrations (MMCs) using the microdilution plate method with resazurin (Alfa Aesar GmbH & Co. (KG, Karlsruhe, Germany)). For this, 96-well plates were prepared by adding 100 μL of Mueller Hinton broth (Torlak, Belgrade, Serbia) for bacterial tests and Sabouraud broth (Torlak, Belgrade, Serbia) for yeast into each well. The tested PCH-1 and PCH-2 were dissolved in 10% dimethyl sulfoxide (DMSO) and then diluted into sterile distilled water. A 100 μL sample from the stock solution of the tested compound was then added to the first row of the plate, followed by twofold serial dilutions using a multichannel pipette. This produced a concentration range from 2.69 to 0.0025 µmol/L. The method is described in detail in the reported paper.
(§4) Each test setup included growth control and sterility control. […] Minimum microbicidal concentrations (MMCs) were determined as described in detail in the reported paper.

B. subtilis (isolate) = test: Microdilution MIC/MMC with resazurin; assay type: cell-based, Bacillus subtilis; settings: for MIC: Bacillus subtilis
Protocol: as §1, §2, §3, §4

E. coli = test: Microdilution MIC/MMC with resazurin; assay type: cell-based, Escherichia coli; settings: for MIC: Escherichia coli
Protocol: as §1, §2, §3, §4

C. albicans ATCC 10231 = test: Microdilution MIC/MMC with resazurin; assay type: cell-based, Candida albicans; settings: for MIC: Candida albicans, ATCC10231
Protocol: as §1, §2, §3, §4

S. aureus ATCC 25923 [1] = test: Inhibition of biofilm formation (crystal violet); assay type: cell-based, Staphylococcus aureus; settings: for BIC90: S. aureus ATCC 25923, 48 h
S. aureus ATCC 25923 [2] = test: Microdilution MIC/MMC with resazurin; assay type: cell-based, Staphylococcus aureus; settings: for MIC: Staphylococcus aureus, ATCC25923
S. cerevisiae = test: Microdilution MIC/MMC with resazurin; assay type: cell-based, Saccharomyces cerevisiae; settings: for MIC: Saccharomyces cerevisiae
Protocol: as §1, §2, §3, §4

K. pneumoniae = test: Microdilution MIC/MMC with resazurin; assay type: cell-based, Klebsiella pneumoniae; settings: for MIC: Klebsiella pneumoniae
Protocol: as §1, §2, §3, §4

P. aeruginosa ATCC 27853 [3] = test: Inhibition of biofilm formation (crystal violet); assay type: cell-based, Pseudomonas aeruginosa; settings: for BIC90: P. aeruginosa ATCC 27853, 48 h; for IC50: Pseudomonas aeruginosa, ATCC27853, P. aeruginosa ATCC 27853, 48 h, read-out: BIC50
Protocol: (§5) The ability of S. aureus ATCC 6538, P. mirabilis ATCC 12453, and P. aeruginosa ATCC 27853 to form biofilms was assayed as described by O’Toole et al. (2000), with some modifications. Briefly, tissue culture 96-well microtiter plates (Sarstedt, Germany) were prepared by dispensing 100 µL of nutrient broth (i.e., Mueller Hinton broth) into each well. Then, 10 µL of spore suspension (1.0 McFarland for Gram-positive bacteria and 0.5 McFarland for Gram-negative bacteria) was added to each row. To encourage biofilm formation, all plates were incubated at 37 °C for 48 h, after which the content of each well was emptied and washed twice with 200 µL of sterile 0.85% saline to remove non-adherent cells. The biofilms formed were fixed by adding 100 µL of methanol until it evaporated completely, then stained with 0.1% (w/v) crystal violet (Fluka AG, Buchs, Switzerland) and left at room temperature for 20 min. The excess stain was washed away with deionized water, followed by […] of 96% ethanol. The optical densities (ODs) of the stained biofilms were measured with an ELISA plate reader (RT-2100C, Rayto, Shenzhen, China) at 630 nm. Control wells containing only broth were included to verify sterility and prevent nonspecific media binding. To account for background absorbance, OD readings from sterile medium, fixative, and dye were averaged and subtracted from all test measurements. All tests were conducted in duplicate. The tissue culture 96-well microtiter plates (Sarstedt, Germany) were prepared by dispensing 100 µL of nutrient broth (i.e., Mueller Hinton broth) into each well. From the stock solutions of tested PCH-1 and PCH-2 (at a concentration of 5.4 µmol/L), 100 µL was added to the first row of the microtiter plate. Twofold serial dilutions were then performed, followed by the addition of 10 µL of bacterial suspension to each well. The turbidity of the bacterial suspension was 0.5 McFarland for Gram-negative bacteria and 1.0 McFarland for Gram-positive bacteria. The microtiter plates prepared in this way were incubated at 37 °C for 48 h. The remaining steps of the experiment were carried out as outlined below. […] Only broth or broth with tested PCH-1 and PCH-2 served as controls to check sterility and nonspecific binding of media. To compensate for background absorbance, OD readings from sterile medium, extracts, fixative, and dye were averaged and subtracted from all test values. All tests were performed in duplicate.

S. enterica = test: Microdilution MIC/MMC with resazurin; assay type: cell-based, Salmonella enterica; settings: for MMC: S. enterica; for MIC: Salmonella enterica
Protocol: as §1, §2, §3, §4

P. mirabilis ATCC 12453 [4] = test: Microdilution MIC/MMC with resazurin; assay type: cell-based, Proteus mirabilis; settings: for MIC: Proteus mirabilis, ATCC12453
Protocol: as §1, §2, §3, §4

P. mirabilis ATCC 12453 [5] = test: Inhibition of biofilm formation (crystal violet); assay type: cell-based, Proteus mirabilis; settings: for BIC90: P. mirabilis ATCC 12453, 48 h; for IC50: Proteus mirabilis, ATCC12453, P. mirabilis ATCC 12453, 48 h, read-out: BIC50
Protocol: as §5

L. plantarum 299V = test: Microdilution MIC/MMC with resazurin; assay type: cell-based, Lactobacillus plantarum; settings: for MIC: Lactiplantibacillus plantarum
Protocol: as §1, §2, §3, §4

P. aeruginosa ATCC 27853 [6] = test: Microdilution MIC/MMC with resazurin; assay type: cell-based, Pseudomonas aeruginosa; settings: for MIC: Pseudomonas aeruginosa, ATCC27853
Protocol: as §1, §2, §3, §4

[7] = Staphylococcus aureus, ATCC25923, S. aureus ATCC 25923, 48 h, read-out: BIC50

SMILES | MMC (B. subtilis ATCC 6633) [mM] | MIC (B. subtilis ATCC 6633) [µM] | MMC (B. subtilis (isolate)) [mM] | MIC (B. subtilis (isolate)) [µM] | MMC (E. coli) [mM] | MIC (E. coli) [µM] | MMC (C. albicans ATCC 10231) [mM] | MIC (C. albicans ATCC 10231) [µM] | BIC90 (S. aureus ATCC 25923 [1]) | IC50 (S. aureus ATCC 25923 [1]; [7]) [µM] | MMC (S. aureus ATCC 25923 [2]) [mM] | MIC (S. aureus ATCC 25923 [2]) [µM] | MMC (S. cerevisiae) [mM] | MIC (S. cerevisiae) [µM] | MMC (K. pneumoniae) [mM] | MIC (K. pneumoniae) [µM] | BIC90 (P. aeruginosa ATCC 27853 [3]) | IC50 (P. aeruginosa ATCC 27853 [3]) [µM] | MMC (S. enterica) [mM] | MIC (S. enterica) [µM] | also measured
C/C(NNC(=O)c1ccc(O)c(O)c1O)=C1\C(=O)Oc2ccccc2C1=O [PCH-1, (E)-N′-(1-(2,4-dioxochroman-3-ylidene)ethyl)-2,3,4-trihydroxybenzohydrazide] | 2.70 | 2700 (≈ 1000 µg/mL) | 1.35 | 1350 (≈ 500 µg/mL) | 0.34 | 340 (≈ 126 µg/mL) | 0.34 | 170 (≈ 63 µg/mL) | ˃2.70 mM | > 2700 | 0.17 | 170 (≈ 63 µg/mL) | 2.70 | 1350 (≈ 500 µg/mL) | 0.34 | 170 (≈ 63 µg/mL) | ˃2.70 mM | > 2700 | 0.17 | 170 (≈ 63 µg/mL) | MMC (P. mirabilis ATCC 12453 [4]): 0.17 mM; MIC (P. mirabilis ATCC 12453 [4]): 80 µM (≈ 29.6 µg/mL); BIC90 (P. mirabilis ATCC 12453 [5]): ˃2.70 mM; IC50 (P. mirabilis ATCC 12453 [5]): > 2700 µM; MMC (L. plantarum 299V): 2.70 mM; MIC (L. plantarum 299V): 2700 µM (≈ 1000 µg/mL); MMC (P. aeruginosa ATCC 27853 [6]): 0.34 mM; MIC (P. aeruginosa ATCC 27853 [6]): 340 µM (≈ 126 µg/mL)
C/C(NNC(=O)c1cc(O)c(O)c(O)c1)=C1\C(=O)Oc2ccccc2C1=O [PCH-2, (E)-N′-(1-(2,4-dioxochroman-3-ylidene)ethyl)-3,4,5-trihydroxybenzohydrazide] | 0.34 | 340 (≈ 126 µg/mL) | 1.35 | 1350 (≈ 500 µg/mL) | 0.34 | 170 (≈ 63 µg/mL) | 1.35 | 170 (≈ 63 µg/mL) | ˃2.70 mM | 1020 | 0.34 | 80 (≈ 29.6 µg/mL) | 2.70 | 1350 (≈ 500 µg/mL) | 0.34 | 170 (≈ 63 µg/mL) | ˃2.70 mM | > 2700 | 0.34 | 80 (≈ 29.6 µg/mL) | IC50 (S. aureus ATCC 25923 [1]; ATCC25923, Staphylococcus aureus ATCC 25923, read-out: BIC50): 378 µg/mL; MMC (P. mirabilis ATCC 12453 [4]): 0.17 mM; MIC (P. mirabilis ATCC 12453 [4]): 80 µM (≈ 29.6 µg/mL); BIC90 (P. mirabilis ATCC 12453 [5]): ˃2.70 mM; IC50 (P. mirabilis ATCC 12453 [5]): 2150 µM; MMC (L. plantarum 299V): 0.67 mM; MIC (L. plantarum 299V): 670 µM (≈ 248 µg/mL); MMC (P. aeruginosa ATCC 27853 [6]): 0.67 mM; MIC (P. aeruginosa ATCC 27853 [6]): 340 µM (≈ 126 µg/mL)
